This note sets out measurements from US8541406B2, “Thiadiazole derivatives for the treatment of neurodegenerative diseases” (NV reMYND, priority 2006, dated 2013).

Converted amounts (≈) assume the structure as drawn. “Also recorded” adds a separate entry of the source.

Experiment [1] relates to M17-SYNwt cells. The experiment in a line: α-synuclein cytotoxicity assay (LDH leakage from paraquat-treated cells). The class given is cell-based, human. The note with it: Homo sapiens; inhibition of synuclein cytotoxicity, paraquat-treated M17-SYNwt cells, 10 point curves in duplicate. As to the method:
1,2,4-thiadazole compounds made according to the methods described herein were screened for activity using the α-synuclein cytotoxicity assay as described above. Dose responses were carried out on all compounds found to be active (10 point curves in duplicate).
(LDH in the medium is a marker of cell lysis.)

In experiment [2] the test system is dopaminergic substantia nigra neurons. The experiment in a line: In vivo inhibition of paraquat-triggered loss of substantia nigra neurons (TH immunohistochemistry). Conditions: mice, paraquat intraperitoneal, compound not higher than 20 mg/kg body weight/day, 8 weeks, versus vehicle. The method, then: In order to model neuronal loss in the substantia nigra region of the brain, mice were treated with paraquat (intraperitoneal) at a dose not higher than 8 mg/kg/day for a continuous period of 15-100 days. These mice were also chronically co-treated during that period with: • compound 60 (1-[4-methoxyphenylsulfonyl]-4-[3-(4-methylbenzyl)-1,2,4-thiadiazol-5-yl]-2-methylpiperazine), or • compound 32 (1-[4-methoxyphenylsulfonyl]-4-[3-(4-fluorobenzyl)-1,2,4-thiadiazol-5-yl]piperazine), or • compound 53 (1-[4-methoxyphenylsulfonyl]-4-[3-(3-methoxy-benzyl)-1,2,4-thiadiazol-5-yl]piperazine), each being administered at a dose not higher than 20 mg/kg body weight/day), or by vehicle only (no active compound). Mice treatment by means of vehicle or a compound of the invention started 2 days before administration of paraquat.
At the end of the treatment period, mice were sacrificed and the corresponding brains were used for immunohistochemical analysis. […] Using antibodies raised against tyrosin hydroxylase (anti-tyrosin hydroxylase), tyrosine hydroxylase containing neurons in the brains were detected.
Three groups of mice were treated with either paraquat and compound 53 (group 3; n=6), or paraquat and vehicle of compound 53 (group 2; n=4), or vehicle paraquat and vehicle of compound 53 (group 1; n=3). […] Per mouse, the median % TH-positive areas (of the substantia nigra regions) was determined. […]

By EC50 is commonly meant the concentration needed to bring the measured effect to its halfway point. A lower EC50 goes with an effect from little substance. In experiment [1], `COc1ccc(S(=O)(=O)N2CCN(c3nc(Cc4cccc(OC)c4)ns3)CC2)cc1` [Compound 53, 1-[4-methoxyphenylsulfonyl]-4-[3-(3-methoxybenzyl)-1,2,4-thiadiazol-5-yl]piperazine] registered a half-maximal effective concentration (EC50) of 0.66 ng/mL (≈ 1.43 nM). Further, in experiment [2], the “protection of TH-positive substantia nigra area against paraquat-triggered degeneration” value is “inhibition of paraquat-triggered degeneration of substantia nigra cells; also recorded: protects dopaminergic substantia nigra neurons against paraquat-triggered degeneration”.
